The conditions of data set [1]: crystalline; cited from earlier work.
In data set [2] the test system is Leishmania. Conditions: visceral leishmaniasis, IV administration; cited from earlier work.
For data set [3] the following is noted: oral; cited from earlier work.
For data set [4], the system named is Leishmania donovani LV82. The data set can be described thus: Visceral leishmaniasis-infected murine model (liver LDU, BALB/c mice). Format: in vivo. The protocol: (§1) To determine the anti-leishmanial activity of a representative oral AmpB formulation, the following studies were completed. BALB/c mice were intravenously infected with 5×10^7 Leishmania donovani LV82 promastigotes (obtained by culturing amastigotes taken directly from the spleen of an infected hamster) seven days prior to treatment. Following the seven days, mice were either administered five daily doses of miltefosine at 3 mg/kg po, or Formulation A at 2.5, 5, and 10 mg/kg po bid for five consecutive days or 20 mg/kg po qd for five consecutive days. Appropriate vehicle controls were also assessed. Animals were sacrificed 14 days post infection and Leishman-Donovan units (LDU) were assessed in livers of mice post mortem via microscopic enumeration of Giemsa-stained liver smears

Data set [5] is described as follows: Body and organ weights in the murine VL model. Format: in vivo, BALB/c mice. Here is the method: as §1
[6] abbreviates: 3 mg/kg p.o. qd, individual mice.

Where “and” joins values, the source holds several entries; their conditions need not be identical. Equal entries are not always repeated.

Consider `C[C@@H]1[C@H](O)[C@@H](C)/C=C/C=C/C=C/C=C/C=C/C=C/C=C/[C@H](O[C@@H]2O[C@H](C)[C@@H](O)[C@H](N)[C@@H]2O)C[C@@H]2O[C@](O)(C[C@@H](O)C[C@@H](O)[C@H](O)CC[C@@H](O)C[C@@H](O)CC(=O)O[C@H]1C)C[C@H](O)[C@H]2C(=O)O` (relative stereo) [amphotericin B, [1R-(1R*,3S*,5R*,6R*,9R*,11R*,15S*,16R*,17R*,18S*,19E,21E,23E,25E, 27E,29E,31E,33R*,35S*,36R*,37S,)]-33-[(3-amino-3,6-dideoxy-β-D-mannopyranosyl)oxy]1,3,5,6,9,11,17,37-octahydroxy-15,16,18-trimethyl-13-oxo-14,39-dioxabicyclo-[33.3.1]nonatriaconta-19,21,23,25,27,29,31-heptaene-36-carboxylic acid], for which, in data set [1], the solubility in water entry is “insoluble”. Besides, the cure rate in data set [2] is 97%. Further, in data set [3], the bioavailability entry is recorded as “negligible”.
With `CCCCCCCCCCCCCCCCOP(=O)([O-])OCC[N+](C)(C)C` [Miltefosine, miltefosine], the “LDU mean ± SD” value in data set [4] (3 mg/kg p.o. qd, group mean (n=4)) was determined as 1537.604. Besides, the LDU in data set [4] (setting [6]) is 1581.58 and 1431.131 and 1736.921 and 1400.783. In addition, the “# of amastigotes per 200 nuclei” value in data set [4] (3 mg/kg p.o. qd, liver smears, individual mice) was 286 and 283 and 301 and 262. Moreover, in data set [4] (3 mg/kg, p.o. qd), the “% Reduction compared to Vehicle control (Average)” value stood at 51.7% and the “% Reduction compared to water control (Average)” value is 49.3%. For the same molecule, in data set [4] (five daily doses at 3 mg/kg po), the “inhibition of liver parasites” value is recorded as 47.5±7.0%. In addition, the “Body Weight” value in data set [5] (setting [6]) was 19.8 g (2×) and 18.8 g and 18.5 g. In data set [5] (3 mg/kg, p.o. qd), the Mean Body Weight Post-treatment is 19.2 g and the Mean Body Weight Pre-treatment was determined as 19.3 g.

The values are drawn from patent US8673866B2, “Stabilized formulation for oral administration of therapeutic agents and related methods” (The University of British Columbia, priority 2009, dated 2014).
